Data from patent US20120225123A1, “Use of Synergistic Combinations of an Avermectin and an Antineoplastic Compounds for the Treatment of Hematological Malignancies” (UNIVERSITY HEALTH NETWORK, priority 2009, published 2012).
Peptide text beside a SMILES is read from it. * marks the point of attachment. Cbz = O=C(OCc1ccccc1)*; CH2F = FC*

What was measured:
leukemia cells = test: Combination of IVM with albendazole, combination index; type: cell-based
OCI-AML2 cells [1] = test: Cell death, viability and cell cycle in OCI-AML2 cells; type: cell-based, human; conditions: for effect of calcium chelation on IVM-induced cell death: chelation of intra and extracellular calcium
Procedure: Cell growth and viability was assessed by the MTS assay (Promega, Madison, Wis.) according to the manufacturer's instructions and as previously described.^12 Cell death was measured by Annexin V-fluoroscein isothiocyanate (FITC) and Propidium Iodide (PI; Biovision Research Products, Mountain View, Calif.) staining and flow cytometry according to the manufacturer's instructions and as previously described.^13 To identify CD34+ cells, a normal PBSC sample was co-stained with PE-anti-CD34+ (Beckman Coulter, Marseille France), and APC-anti-CD45 (Becton Dickenson, San Jose Calif.).
Cell cycle analysis was performed as described previously.^15 Briefly, cells were harvested, washed with cold PBS, and resuspended in 80% cold ethanol. Cells were then treated with 100 ng/mL DNase-free RNase A (Invitrogen) at 37° C. for 30 min, washed with cold PBS, and resuspended in PBS with 50 μg/mL propidium iodide. DNA content was analyzed by flow cytometry (FACSCalibur; Becton Dickinson). The percentage of cells in each phase of the cell cycle was calculated with FlowJo version 8.8 (TreeStar, Ashland, Oreg.).

OCI-AML2 cells [2] = test: Reactive oxygen species, Carboxy-H2DCFDA staining, OCI-AML2; type: cell-based, human; conditions: increasing concentrations, flow cytometry
Procedure: Data were analyzed with FlowJo version 8.8 (TreeStar, Ashland, Oreg.).

[3] = system: STAT1 and target genes IFIT3, OAS1 and TRIM22 in OCI-AML2 cells; test: Gene expression by Q-RT-PCR, OCI-AML2; type: cell-based, human; conditions: pre-treatment with NAC
Procedure: Leukemia cells were treated with buffer control or ivermectin (3 μM) for 30 and 40 hours. After treatment, cells were harvested, total RNA was isolated. Total RNA (10 μg) was used for cRNA amplification using the Invitrogen SuperScript kit (Life Technologies, Inc., Burlington, ON, Canada). Amplification and biotin labeling of antisense cRNA was performed using the Enzo® BioArray™ High Yield™ RNA transcript labeling kit (Enzo Diagnostics, Farmingdale, N.Y., USA), according to the manufacturer's instructions. RNA was then hybridized to Affymetrix HG U133 Plus 2.0 gene expression oligonucleotide arrays (Affymetrix, Santa Clara, Calif., USA). Microarray slides were scanned using the GeneArray 2500 scanner (Agilent Technologies). Microarray data were analyzed using GeneSpring GX v10.0 (Agilent), and lists of genes deregulated>2-fold after 30 and 40 hr ivermectin treatment were derived. Pathways and gene ontology analyses were carried out using Ingenuity Pathways Analysis (www.ingenuity.com); and the Database for Annotation, Visualization and Integrated Discovery (DAVID; http://david.abcc.ncifcrf.gov). […]
Gene expression changes were evaluated in OCI AML2, 0937, HL60, DU145 and PPC-1 cells by real-time Q-RT-PCRas described previously^15, 47. The expression level of STAT1A, STAT1B, TRIM22, OAS1 and IFIT3 before and after incubation of leukemia cells with ivermectin was evaluated.

Q: Which “CI value at the ED25” value (leukemia cells) does the source give for `CCCSc1ccc2nc(NC(=O)OC)[nH]c2c1` [albendazole] here?
A: 1.59

Q: And the “CI value at the ED75” value (leukemia cells)?
A: 0.89

Q: And the “drug interaction with IVM” value (leukemia cells)?
A: antagonized the anti-leukemic effects of IVM

Q: For `CC(=O)OCOC(=O)CN(CC(=O)OCOC(C)=O)c1ccccc1OCCOc1ccccc1N(CC(=O)OCOC(C)=O)CC(=O)OCOC(C)=O` [BAPTA-AM], which “effect of calcium chelation on IVM-induced cell death” value (OCI-AML2 cells [1]) is on record?
A: did not inhibit IVM-induced cell death

Q: `O=C(O)CN(CCN(CC(=O)O)CC(=O)O)CC(=O)O` [EDTA] was tested. Which “effect of calcium chelation on IVM-induced cell death” value (OCI-AML2 cells [1]) did it give?
A: did not inhibit IVM-induced cell death

Q: With `COc1cccc2c1C(=O)c1c(O)c3c(c(O)c1C2=O)C[C@@](O)(C(C)=O)C[C@@H]3O[C@H]1C[C@H](N)[C@H](O)[C@H](C)O1` [daunorubicin] as the compound, how does the ROS production (OCI-AML2 cells [2]) read?
A: increase ROS production

Q: For `COC(=O)C[C@H](NC(=O)[C@H](C)NC(=O)[C@@H](NC(=O)OCc1ccccc1)C(C)C)C(=O)CF` [z-VAD-fmk] (Cbz-Val-Ala-Asp(OMe)-CH2F), which “effect of pan-caspase inhibitor co-treatment on ivermectin-induced cell death” value (OCI-AML2 cells [1]; co-treatment with ivermectin, 24 hours, Annexin V-PI) is on record?
A: abrogated cell death

Q: Which ROS production (OCI-AML2 cells [2]) does the source give for `Nc1ccn([C@@H]2O[C@H](CO)[C@@H](O)[C@@H]2O)c(=O)n1` [cytarabine] here?
A: increase ROS production

Q: With `CC(=O)N[C@@H](CS)C(=O)O` [NAC, N-acetyl-L-Cysteine] as the compound, how does the “effect of free radical scavenger on IVM-induced cell death” value (OCI-AML2 cells [1]; treated with IVM along with NAC) read?
A: abrogated IVM-induced cell death

Q: What about the “effect of NAC pre-treatment on ivermectin upregulation of STAT1 genes” value [3] of the same compound?
A: blocked their upregulation
